SMILES strings stand for the structures. pKi: −log10 of the molar value. Starred links: 1 amine or outer side, 2 acyl side, 3 side chain; linkers in the order of their positions; H or OH if unused. Non-standard residues stand in square brackets, D forms with d. Residues, ends and D or L forms follow the SMILES beside them. *: point of attachment. pNA = O=[N+]([O-])c1ccc(N*)cc1; Nle = CCCC[CH](N)C(=O)O; CO = O=C([*:1])[*:2]

The source of these data is BindingDB's records for doi:10.1006/frne.1999.0183 (Royal Victoria Hospital, 1999).

Assay [1] addresses Somatostatin receptor type 5 (Homo sapiens, UniProt P35346).
Assay [2] concerns the target Somatostatin receptor type 2 (Homo sapiens, UniProt P30874).
For assay [3], the target named is Somatostatin receptor type 1 (Homo sapiens, UniProt P30872).
Sequence of Somatostatin receptor type 1 (P30872 whole entry): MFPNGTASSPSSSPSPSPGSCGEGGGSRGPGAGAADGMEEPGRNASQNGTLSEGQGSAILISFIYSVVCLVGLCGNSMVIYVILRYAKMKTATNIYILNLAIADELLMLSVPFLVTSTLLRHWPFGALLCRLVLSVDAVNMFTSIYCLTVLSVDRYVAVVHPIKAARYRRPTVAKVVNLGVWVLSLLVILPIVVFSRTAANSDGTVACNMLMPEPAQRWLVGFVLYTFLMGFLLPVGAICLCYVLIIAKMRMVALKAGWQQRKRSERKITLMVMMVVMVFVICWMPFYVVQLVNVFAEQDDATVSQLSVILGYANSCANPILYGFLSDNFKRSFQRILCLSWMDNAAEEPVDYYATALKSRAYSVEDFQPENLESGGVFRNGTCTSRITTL
In assay [4] the target is Somatostatin receptor type 3 (Homo sapiens, UniProt P32745).
Sequence of Somatostatin receptor type 3 (P32745 whole entry): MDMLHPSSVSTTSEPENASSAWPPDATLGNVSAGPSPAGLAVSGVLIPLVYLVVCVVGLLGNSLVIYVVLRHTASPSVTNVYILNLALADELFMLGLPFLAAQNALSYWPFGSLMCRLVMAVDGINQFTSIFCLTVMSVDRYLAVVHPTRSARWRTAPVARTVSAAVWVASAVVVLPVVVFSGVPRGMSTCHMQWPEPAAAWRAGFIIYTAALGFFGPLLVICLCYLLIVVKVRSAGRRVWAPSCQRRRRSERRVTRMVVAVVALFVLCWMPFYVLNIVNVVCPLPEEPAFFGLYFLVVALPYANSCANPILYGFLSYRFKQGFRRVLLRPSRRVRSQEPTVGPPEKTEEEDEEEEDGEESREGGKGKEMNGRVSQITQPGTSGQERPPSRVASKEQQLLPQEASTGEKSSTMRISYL
The target of assay [5] is Somatostatin receptor type 4 (Homo sapiens, UniProt P31391).
Sequence of Somatostatin receptor type 4 (P31391 whole entry): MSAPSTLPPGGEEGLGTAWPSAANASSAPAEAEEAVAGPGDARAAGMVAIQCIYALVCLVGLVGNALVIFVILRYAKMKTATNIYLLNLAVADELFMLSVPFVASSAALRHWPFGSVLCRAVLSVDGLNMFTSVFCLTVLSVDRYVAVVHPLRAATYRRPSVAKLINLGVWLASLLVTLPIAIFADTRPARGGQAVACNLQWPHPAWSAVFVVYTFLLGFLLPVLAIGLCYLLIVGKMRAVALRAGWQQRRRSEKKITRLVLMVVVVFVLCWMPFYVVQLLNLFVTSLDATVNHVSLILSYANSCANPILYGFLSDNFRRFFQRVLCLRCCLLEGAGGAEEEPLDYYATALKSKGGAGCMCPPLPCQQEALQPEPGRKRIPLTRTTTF

Sequence of Somatostatin receptor type 2 (P30874 whole entry): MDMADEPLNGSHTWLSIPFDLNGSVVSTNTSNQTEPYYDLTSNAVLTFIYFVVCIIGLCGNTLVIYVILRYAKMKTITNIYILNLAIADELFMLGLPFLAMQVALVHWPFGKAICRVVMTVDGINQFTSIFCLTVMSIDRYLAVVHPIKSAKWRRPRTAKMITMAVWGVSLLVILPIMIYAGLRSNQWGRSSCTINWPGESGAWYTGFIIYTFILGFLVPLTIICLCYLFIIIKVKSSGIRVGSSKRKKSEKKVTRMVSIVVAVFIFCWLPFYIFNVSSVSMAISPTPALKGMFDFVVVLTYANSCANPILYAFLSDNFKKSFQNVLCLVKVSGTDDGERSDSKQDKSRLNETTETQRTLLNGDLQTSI
Sequence of Somatostatin receptor type 5 (P35346 whole entry): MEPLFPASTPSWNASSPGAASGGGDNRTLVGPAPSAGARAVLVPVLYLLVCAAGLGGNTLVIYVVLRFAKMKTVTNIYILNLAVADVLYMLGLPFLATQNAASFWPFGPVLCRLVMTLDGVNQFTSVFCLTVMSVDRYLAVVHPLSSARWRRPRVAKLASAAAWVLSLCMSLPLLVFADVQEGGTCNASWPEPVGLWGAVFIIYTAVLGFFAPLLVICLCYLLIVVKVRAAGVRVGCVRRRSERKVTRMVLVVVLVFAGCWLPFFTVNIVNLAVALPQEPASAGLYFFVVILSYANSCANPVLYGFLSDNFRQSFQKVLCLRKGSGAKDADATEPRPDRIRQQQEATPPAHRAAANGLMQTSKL

As usually defined, the pKi is the negative decadic logarithm of the Ki, by convention in mol/L. Lower therefore signals a high Ki. As to `CC(CCN)CC(C)(C)CNC(=O)[C@@H](Cc1cccc2ccccc12)NC(=O)N(CCc1ccccc1)CCc1ccccn1` (stereo partly drawn) [L-797591], the negative-log Ki (pKi) in assay [1] is 5.44; in assay [2], 5.73; in assay [3], 8.85; in assay [4], 5.65; in assay [5], 6.77.

As for `CC(C)NCc1ccc(C[C@@H]2NC(=O)[C@@H](Cc3c[nH]c4ccccc34)NC(=O)[C@H](Cc3ccccc3)NC(=O)[C@H](Cc3ccccc3)NC(=O)[C@H](CCCCN)NC(=O)[C@@H](N)CSSC[C@@H](C(=O)O)NC(=O)[C@H](CO)NC(=O)[C@H]([C@@H](C)O)NC(=O)[C@H](Cc3ccccc3)NC(=O)[C@H]([C@@H](C)O)NC2=O)cc1` [CH-275] (HELM PEPTIDE1{C.K.F.F.[dW].[CC(C)NCc1ccc(C[C@H](N[*:1])C(=O)[*:2])cc1].T.F.T.S.C}$PEPTIDE1,PEPTIDE1,1:R3-11:R3$$$V2.0), the pKi in assay [1] is 6.00; in assay [3] it was 8.49; in assay [4], 6.00; in assay [5] it was 8.37.

Regarding `C[C@H](N)COC(=O)[C@H](CCCCN)NC(=O)Cc1c(-c2ccc3ccccc3c2)[nH]c2c1ccc1ccccc12`, the negative logarithm of the Ki (pKi) in assay [1] is 9.40; in assay [2] it was 7.28; in assay [3] it was 8.48; in assay [4], 7.19; in assay [5], 7.09.

Regarding `CCCCC(NC(=O)NC(Cc1ccccc1)C(=O)Nc1ccc([N+](=O)[O-])cc1)C(=O)NC(CCCCN)C(=O)OC` (stereo unspecified) [CAS_5311373] ({pNA-Phe-CO}-[Nle]-Lys-OMe; configuration not given here), the pKi is 5.92 in assay [1]; less than 5.00 in assay [2]; 5.90 in assay [3]; 7.62 in assay [4]; 5.06 in assay [5].

As to `CSCC[C@H](NC(=O)[C@H](CCCN=C(N)N)NC(=O)[C@@H](N)CC(=O)O)C(=O)N1CCC[C@H]1C(=O)N[C@H]1CSSC[C@@H](C(=O)N[C@@H](CCCCN)C(=O)O)NC(=O)[C@H](CO)NC(=O)[C@H](CO)NC(=O)[C@H](Cc2ccccc2)NC(=O)[C@H]([C@@H](C)O)NC(=O)[C@H](CCCCN)NC(=O)[C@H](Cc2c[nH]c3ccccc23)NC(=O)[C@H](Cc2ccccc2)NC(=O)[C@H](Cc2ccccc2)NC(=O)[C@H](CC(N)=O)NC(=O)[C@H](CCCN=C(N)N)NC1=O` [Cortistatin], the pKi in assay [1] was 9.40; in assay [2], 9.22; in assay [3] it was 8.15; in assay [4], 9.22; in assay [5] it was 9.30.

For `CC(C)[C@@H]1NC(=O)[C@H](CCCCN)NC(=O)[C@@H](Cc2c[nH]c3ccccc23)NC(=O)[C@H](Cc2ccc(O)cc2)NC(=O)[C@H](C)N(C)C(=O)[C@H](Cc2ccccc2)NC1=O` [seglitide], the pKi is 6.00 in assay [3] and 7.57 in assay [4].

Take `CC(c1c[nH]c2ccccc12)C(NC(=O)N1CCC(n2c(=O)[nH]c3ccccc32)CC1)C(=O)NCC1CCCC(CN)C1` (stereo unspecified) [CAS_5311372]: the pKi is 5.37 in assay [1]; 10.30 in assay [2]; 5.56 in assay [3]; 6.14 in assay [4]; 6.51 in assay [5].

On to `COC(=O)C(CCCNC(=N)N)NC(=O)CCCc1c(-c2ccccc2)[nH]c2c(F)cc(F)cc12` [L-803,087], for which the pKi was 5.41 in assay [1]; 5.33 in assay [2]; 6.70 in assay [3]; 5.89 in assay [4]; 9.15 in assay [5].
